Read-outs that look alike come from different tables or passages of the source.
Tests used:
PARP-1 = molecular target: T1, PARP-1 (Homo sapiens, UniProt P09874); assay: PARP-1 inhibition assay (PARP-1 Chemiluminescent Assay Kit, BPS Bioscience); format: biochemical; conditions: 10 nM compound
T1 construct: purchased BPS Bioscience 80569
Experimental: (§1) The PARP-1 and PARP-2 inhibition assays were performed in outsourcing, by a CRO company, Shanghai Medicilon Inc. (Shanghai, China). […] Briefly, PARP-1 or PARP-2 biotinylated substrate was incubated with compounds or solvent control at varying concentrations and an assay buffer containing the PARP-1 or PARP-2 enzyme.

PARP-2 = molecular target: T2, PARP-2 (Homo sapiens, UniProt Q9UGN5); assay: PARP-2 inhibition assay (PARP-2 Chemiluminescent Assay Kit, BPS Bioscience); format: biochemical; conditions: 10 nM compound
T2 construct: purchased BPS Bioscience 80552
Experimental: as §1

[1] = tested on: CAPAN-1 (a BRCA-2-mutated pancreatic cancer cell line); assay: Cell proliferation assay, three-day, CellTiter-Glo, CAPAN-1; format: cell-based; conditions: for IC50 / inhibition at 0.00508 µM / inhibition at 0.0152 µM / inhibition at 0.0457 µM / inhibition at […] / inhibition at 0.41 µM / inhibition at 1.23 µM / inhibition at 3.7 µM / inhibition at 11.11 µM / inhibition at 33.33 µM / inhibition at 100 µM: Homo sapiens; for inhibition at 0.00508 µM: CAPAN-1, 0.00508 uM; for inhibition at 0.0152 µM: CAPAN-1, 0.0152 uM; for inhibition at 0.0457 µM: CAPAN-1, 0.0457 uM; for inhibition at […]: CAPAN-1, 0.14 uM; for inhibition at 0.41 µM: CAPAN-1, 0.41 uM; for inhibition at 1.23 µM: CAPAN-1, 1.23 uM; for inhibition at 3.7 µM: CAPAN-1, 3.70 uM; for inhibition at 11.11 µM: CAPAN-1, 11.11 uM; for inhibition at 33.33 µM: CAPAN-1, 33.33 uM; for inhibition at 100 µM: CAPAN-1, 100.00 uM
Experimental: (§2) A three-day assay was conducted. A cell suspension was prepared. Cell density was counted by an automated cell counter and then diluted to the required density, according to seeding density. 50 μL cells were seeded into 384-well plate in growth medium according to the plate map. The cells were incubated at 37 °C, 5% CO2 overnight.
(§3) 200× compound solution in DMSO was prepared and diluted with growth medium to 26× final concentration by addition of 26 μL 200× compounds to 174 μL growth medium. Then 2 μL of diluted compound solution was added to cells and the cell was incubated at 37 °C, 5% CO2 for 72 h.
(§4) The assay plate was equilibrated to room temperature prior to measurement. 15 μL of CellTiter-Glo Reagent was added into each well and the contents were mixed for 2 min on an orbital shaker to induce cell lysis. The cells were incubated at room temperature for 60 min to stabilize luminescent signal. Luminescence was recorded on the Envision system.

[2] = tested on: MDA-MB-436 (a BRCA-1-mutated breast cancer cell line); assay: Cell proliferation assay, three-day, CellTiter-Glo, MDA-MB-436; format: cell-based; conditions: for inhibition at 0.00508 µM / inhibition at 0.0152 µM / inhibition at 0.0457 µM / inhibition at 0.41 µM / inhibition at 1.23 µM / inhibition at 3.7 µM / inhibition at 11.11 µM / inhibition at 33.33 µM / inhibition at 100 µM / IC50: Homo sapiens; for inhibition at 0.00508 µM: MDA-MB-436, MDA-MB-436, Conc. 0.00508 uM; for inhibition at 0.0152 µM: MDA-MB-436, MDA-MB-436, Conc. 0.0152 uM; for inhibition at 0.0457 µM: MDA-MB-436, MDA-MB-436, Conc. 0.0457 uM; for inhibition at 0.41 µM: MDA-MB-436, MDA-MB-436, Conc. 0.41 uM; for inhibition at 1.23 µM: MDA-MB-436, MDA-MB-436, Conc. 1.23 uM; for inhibition at 3.7 µM: MDA-MB-436, MDA-MB-436, Conc. 3.70 uM; for inhibition at 11.11 µM: MDA-MB-436, MDA-MB-436, Conc. 11.11 uM; for inhibition at 33.33 µM: MDA-MB-436, MDA-MB-436, Conc. 33.33 uM; for inhibition at 100 µM: MDA-MB-436, MDA-MB-436, Conc. 100.00 uM
Experimental: as §2, §3, §4

[3] = supplement sheet, read-out: 10 nM inhibition% PAPR-1
[4] = read-out: PARP-1 Inhibition % (10 nM)
[5] = supplement sheet, read-out: 10 nM inhibition% PAPR-2
[6] = read-out: PARP-2 Inhibition % (10 nM)
[7] = CAPAN-1, 72 h, CellTiter-Glo, read-out: CAPAN-1 IC50
[8] = MDA-MB-436, 72 h, CellTiter-Glo, read-out: MDA-MB-436 IC50

T1 sequence (P09874 whole entry): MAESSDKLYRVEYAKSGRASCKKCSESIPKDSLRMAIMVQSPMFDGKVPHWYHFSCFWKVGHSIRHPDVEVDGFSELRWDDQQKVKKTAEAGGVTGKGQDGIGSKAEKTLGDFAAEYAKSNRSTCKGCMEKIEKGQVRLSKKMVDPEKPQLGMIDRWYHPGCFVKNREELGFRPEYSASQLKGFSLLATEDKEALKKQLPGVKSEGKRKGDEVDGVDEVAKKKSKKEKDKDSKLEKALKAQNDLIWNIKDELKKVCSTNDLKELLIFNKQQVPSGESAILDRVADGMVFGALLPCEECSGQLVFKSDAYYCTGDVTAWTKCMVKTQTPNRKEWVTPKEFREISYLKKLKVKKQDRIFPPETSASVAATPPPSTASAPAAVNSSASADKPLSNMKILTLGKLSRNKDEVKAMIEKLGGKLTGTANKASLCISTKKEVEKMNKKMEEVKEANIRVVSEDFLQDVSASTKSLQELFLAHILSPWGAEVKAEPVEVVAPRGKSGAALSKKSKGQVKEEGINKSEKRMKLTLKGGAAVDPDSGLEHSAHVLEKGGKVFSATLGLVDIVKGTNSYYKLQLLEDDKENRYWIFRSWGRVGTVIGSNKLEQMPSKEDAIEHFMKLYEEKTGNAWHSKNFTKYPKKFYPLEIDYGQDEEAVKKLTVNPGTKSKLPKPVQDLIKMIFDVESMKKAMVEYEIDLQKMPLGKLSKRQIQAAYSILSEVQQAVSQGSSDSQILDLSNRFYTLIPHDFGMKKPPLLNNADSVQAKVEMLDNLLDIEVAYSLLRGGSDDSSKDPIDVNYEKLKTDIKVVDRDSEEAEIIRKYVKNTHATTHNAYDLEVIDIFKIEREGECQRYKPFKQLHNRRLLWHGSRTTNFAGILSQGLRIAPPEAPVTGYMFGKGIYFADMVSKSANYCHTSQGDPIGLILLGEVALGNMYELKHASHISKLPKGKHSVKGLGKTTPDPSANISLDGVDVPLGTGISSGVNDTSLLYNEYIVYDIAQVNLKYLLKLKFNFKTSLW
T2 sequence (Q9UGN5 whole entry): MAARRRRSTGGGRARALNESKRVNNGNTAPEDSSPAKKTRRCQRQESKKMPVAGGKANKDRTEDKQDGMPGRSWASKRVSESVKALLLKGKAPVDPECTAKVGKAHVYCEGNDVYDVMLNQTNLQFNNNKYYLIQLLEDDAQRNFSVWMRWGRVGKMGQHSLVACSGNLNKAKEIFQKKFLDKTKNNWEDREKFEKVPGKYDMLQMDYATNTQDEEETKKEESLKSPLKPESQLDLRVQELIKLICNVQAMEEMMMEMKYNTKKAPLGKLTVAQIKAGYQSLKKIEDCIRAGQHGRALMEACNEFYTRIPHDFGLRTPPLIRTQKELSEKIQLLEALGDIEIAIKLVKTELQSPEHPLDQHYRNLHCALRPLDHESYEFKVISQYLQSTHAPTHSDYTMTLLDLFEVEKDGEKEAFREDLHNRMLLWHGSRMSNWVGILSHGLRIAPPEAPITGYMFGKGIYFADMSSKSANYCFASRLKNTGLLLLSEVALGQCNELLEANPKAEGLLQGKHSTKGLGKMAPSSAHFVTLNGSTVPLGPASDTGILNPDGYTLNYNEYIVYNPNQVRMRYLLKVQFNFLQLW

Structure (SMILES): NC(=O)c1cccc2[nH]c(C3CCN(CC(=O)c4ccccc4)C3)nc12 (stereo not drawn) [Compound 5cd, 2-(1-(2-Oxo-2-phenylethyl)pyrrolidin-3-yl)-1H-benzo[d]imidazole-4-carboxa-mide]
- inhibition at 0.01 µM (PARP-1; [3]): -1.05%
- inhibition at 0.01 µM (PARP-1; [4]): -1.1%
- inhibition at 0.01 µM (PARP-2; [5]): 7.18%
- inhibition at 0.01 µM (PARP-2; [6]): 7.2%
- LogIC50 ([1]; CAPAN-1, curve-fit output, Log (uM)): 1.917
- IC50 [1, 7]: 82.5 µM
- inhibition at 0.00508 µM ([1]; replicate 1, read-out: Inh % 1): 4.6%
- inhibition at 0.00508 µM ([1]; replicate 2, read-out: Inh % 2): -0.8%
- inhibition at 0.0152 µM ([1]; replicate 1, read-out: Inh % 1): 2.6%
- inhibition at 0.0152 µM ([1]; replicate 2, read-out: Inh % 2): -1.6%
- inhibition at 0.0457 µM ([1]; replicate 1, read-out: Inh % 1): 0.6%
- inhibition at 0.0457 µM ([1]; replicate 2, read-out: Inh % 2): -4.7%
- inhibition at […] ([1]; replicate 1, read-out: Inh % 1): 3.7%
- inhibition at […] ([1]; replicate 2, read-out: Inh % 2): -1.1%
- inhibition at 0.41 µM ([1]; replicate 1, read-out: Inh % 1): 13.1%
- inhibition at 0.41 µM ([1]; replicate 2, read-out: Inh % 2): 3.2%
- inhibition at 1.23 µM ([1]; replicate 1, read-out: Inh % 1): 2.1%
- inhibition at 1.23 µM ([1]; replicate 2, read-out: Inh % 2): 3.2%
- inhibition at 3.7 µM ([1]; replicate 1, read-out: Inh % 1): 4%
- inhibition at 3.7 µM ([1]; replicate 2, read-out: Inh % 2): 4.4%
- inhibition at 11.11 µM ([1]; replicate 1, read-out: Inh % 1): 1%
- inhibition at 11.11 µM ([1]; replicate 2, read-out: Inh % 2): 4.4%
- inhibition at 33.33 µM ([1]; replicate 1, read-out: Inh % 1): 17.9%
- inhibition at 33.33 µM ([1]; replicate 2, read-out: Inh % 2): 8.7%
- inhibition at 100 µM ([1]; replicate 1, read-out: Inh % 1): 68%
- inhibition at 100 µM ([1]; replicate 2, read-out: Inh % 2): 55.2%
- IC50 ([1]; CAPAN-1, 72 h, supplement Summary sheet, read-out: IC50): 82.5 µM
- IC50 ([1]; CAPAN-1, curve-fit output, concentrations in uM, read-out: IC50): 82.5 µM
- inhibition at 0.00508 µM ([2]; replicate 1, read-out: Inh % 1): -0.654%
- inhibition at 0.00508 µM ([2]; replicate 2, read-out: Inh % 2): -7.1%
- inhibition at 0.0152 µM ([2]; replicate 1, read-out: Inh % 1): -3.7%
- inhibition at 0.0152 µM ([2]; replicate 2, read-out: Inh % 2): -6.1%
- inhibition at 0.0457 µM ([2]; replicate 1, read-out: Inh % 1): -6.8%
- inhibition at 0.0457 µM ([2]; replicate 2, read-out: Inh % 2): -12.7%
- inhibition at 0.41 µM ([2]; replicate 1, read-out: Inh % 1): -13.5%
- inhibition at 0.41 µM ([2]; replicate 2, read-out: Inh % 2): -13.2%
- inhibition at 1.23 µM ([2]; replicate 1, read-out: Inh % 1): -16.5%
- inhibition at 1.23 µM ([2]; replicate 2, read-out: Inh % 2): -19%
- inhibition at 3.7 µM ([2]; replicate 1, read-out: Inh % 1): -10.3%
- inhibition at 3.7 µM ([2]; replicate 2, read-out: Inh % 2): -11.7%
- inhibition at 11.11 µM ([2]; replicate 1, read-out: Inh % 1): 0.3%
- inhibition at 11.11 µM ([2]; replicate 2, read-out: Inh % 2): -11%
- inhibition at 33.33 µM ([2]; replicate 1, read-out: Inh % 1): 35.4%
- inhibition at 33.33 µM ([2]; replicate 2, read-out: Inh % 2): 16.5%
- inhibition at 100 µM ([2]; replicate 1, read-out: Inh % 1): 68.9%
- inhibition at 100 µM ([2]; replicate 2, read-out: Inh % 2): 66.2%
- IC50 [2, 8]: 55 µM
- IC50 ([2]; MDA-MB-436, 72 h, supplement Summary sheet, read-out: IC50): 55 µM
- IC50 ([2]; MDA-MB-436, curve fit list, no unit in the cell, concentration in uM, read-out: IC50): 55 µM
- LogIC50 ([2]; MDA-MB-436, curve fit on Log (uM) concentrations): 1.74
- Bottom ([2]; MDA-MB-436, curve fit parameter (Inh %)): -10.87
- Top ([2]; MDA-MB-436, curve fit parameter (Inh %), '= 100.0' is a constrained value): = 100.0

Structure (SMILES): NC(=O)c1cccc2[nH]c(C3CCN(CCCN4C(=O)c5ccccc5C4=O)C3)nc12 (stereo not drawn) [Compound 5ce, 2-(1-(3-(1,3-Dioxoisoindolin-2-yl)propyl)pyrrolidin-3-yl)-1H-benzo[d]imidazole-4-carboxamide]
- inhibition at 0.01 µM (PARP-1; [3]): 22%
- inhibition at 0.01 µM (PARP-1; [4]): 22%
- inhibition at 0.01 µM (PARP-2; [5]): 74.6%
- inhibition at 0.01 µM (PARP-2; [6]): 74.5%
- IC50 [1, 7]: > 100 µM
- inhibition at 0.00508 µM ([1]; replicate 1, read-out: Inh % 1): -4.4%
- inhibition at 0.00508 µM ([1]; replicate 2, read-out: Inh % 2): 0.4%
- inhibition at 0.0152 µM ([1]; replicate 1, read-out: Inh % 1): -2.3%
- inhibition at 0.0152 µM ([1]; replicate 2, read-out: Inh % 2): -0.9%
- inhibition at 0.0457 µM ([1]; replicate 1, read-out: Inh % 1): 1.8%
- inhibition at 0.0457 µM ([1]; replicate 2, read-out: Inh % 2): 10%
- inhibition at […] ([1]; replicate 1, read-out: Inh % 1): -0.6%
- inhibition at […] ([1]; replicate 2, read-out: Inh % 2): -2.2%
- inhibition at 0.41 µM ([1]; replicate 1, read-out: Inh % 1): 12.8%
- inhibition at 0.41 µM ([1]; replicate 2, read-out: Inh % 2): 3.7%
- inhibition at 1.23 µM ([1]; replicate 1, read-out: Inh % 1): 7.5%
- inhibition at 1.23 µM ([1]; replicate 2, read-out: Inh % 2): 3.7%
- inhibition at 3.7 µM ([1]; replicate 1, read-out: Inh % 1): 6.8%
- inhibition at 3.7 µM ([1]; replicate 2, read-out: Inh % 2): 9.9%
- inhibition at 11.11 µM ([1]; replicate 1, read-out: Inh % 1): 13.7%
- inhibition at 11.11 µM ([1]; replicate 2, read-out: Inh % 2): -0.541%
- inhibition at 33.33 µM ([1]; replicate 1, read-out: Inh % 1): 11%
- inhibition at 33.33 µM ([1]; replicate 2, read-out: Inh % 2): 3.9%
- inhibition at 100 µM ([1]; replicate 1, read-out: Inh % 1): 6.1%
- inhibition at 100 µM ([1]; replicate 2, read-out: Inh % 2): 4.5%
- inhibition at 0.00508 µM ([2]; replicate 1, read-out: Inh % 1): 20.1%
- inhibition at 0.00508 µM ([2]; replicate 2, read-out: Inh % 2): 0.9%
- inhibition at 0.0152 µM ([2]; replicate 1, read-out: Inh % 1): -2.8%
- inhibition at 0.0152 µM ([2]; replicate 2, read-out: Inh % 2): -5%
- inhibition at 0.0457 µM ([2]; replicate 1, read-out: Inh % 1): -11.2%
- inhibition at 0.0457 µM ([2]; replicate 2, read-out: Inh % 2): -11.9%
- inhibition at 0.41 µM ([2]; replicate 1, read-out: Inh % 1): -6.1%
- inhibition at 0.41 µM ([2]; replicate 2, read-out: Inh % 2): -15.6%
- inhibition at 1.23 µM ([2]; replicate 1, read-out: Inh % 1): -8.9%
- inhibition at 1.23 µM ([2]; replicate 2, read-out: Inh % 2): -17.5%
- inhibition at 3.7 µM ([2]; replicate 1, read-out: Inh % 1): -1.2%
- inhibition at 3.7 µM ([2]; replicate 2, read-out: Inh % 2): -9.2%
- inhibition at 11.11 µM ([2]; replicate 1, read-out: Inh % 1): 15.7%
- inhibition at 11.11 µM ([2]; replicate 2, read-out: Inh % 2): -2.9%
- inhibition at 33.33 µM ([2]; replicate 1, read-out: Inh % 1): -10.9%
- inhibition at 33.33 µM ([2]; replicate 2, read-out: Inh % 2): -11%
- inhibition at 100 µM ([2]; replicate 1, read-out: Inh % 1): 0.113%
- inhibition at 100 µM ([2]; replicate 2, read-out: Inh % 2): -9.4%
- IC50 [2, 8]: > 100 µM

— publication PMC6572064, “Discovery of 2-(1-(3-(4-Chloroxyphenyl)-3-oxo- propyl)pyrrolidine-3-yl)-1H-benzo[d]imidazole-4-carboxamide: A Potent Poly(ADP-ribose) Polymerase (PARP) Inhibitor for Treatment of Cancer” (Molecules, 2019)
